Reference: patent US11976056B2, “Substituted alkoxypyridinyl indolsulfonamides” (UCB Pharma GmbH, priority 2018, dated 2024)

Molecular target: T1, GPR17 (Homo sapiens, UniProt Q13304)
Experiment: cAMP accumulation functional assay (HTRF, Schild analysis vs MDL29,951)
Type: cell-based
Set-up: host or cells: Flp-In T-REx CHO
Conditions: CHO hGPR17, Schild analysis against MDL29,951, activity range; read-out: cAMP assay pA2 (converted)
Procedure: Flp-In T-REx CHO cells stably expressing human GPR17 receptor (CHO hGPR17) from Evi Kostenis' lab (Bonn University, Germany) were cultured at 37° C. in a humidified atmosphere of 5% CO2. Cells were grown in DMEM with Nutrient Mixture F-12 supplemented with hygromycin B (500 μg/ml) and blasticidin (30 μg/ml). Expression from the Flp-In locus was induced by treatment with doxycycline (1 μg/ml) for 16-20 h prior assays.
GPR17 activation can also recruit Gi-type G-protein signaling, resulting in a decrease of intracellular cyclic adenosine monophosphate (cAMP). Intracellular cAMP changes can be measured using the HTRF cAMP dynamic assay kit from CisBio (Codolet, France). Using homogenous time-resolved fluorescence technology (HTRF), the assay is based on competition between native cAMP produced by cells and cAMP labelled with the dye d2. The tracer binding was determined by an anti-cAMP antibody labeled with cryptate.
CHO hGPR17 were detached with PBS containing EDTA and dispatched in black 384-well plates with 5,000 cells per well. Cells were first incubated for 30 minutes at room temperature in HBSS Hepes (pH 7.4) containing vehicle or varying concentrations of test GPR17 antagonist/inverse agonist compounds. Then, a dose response curve of MDL29,951 GPR17 agonist (typically from 10^−5 M to 10^−10 m) was added on vehicle and on each test GPR17 antagonist/inverse agonist compound concentration in a final volume of 20 μL HBSS Hepes buffer (pH 7.4) containing 1% DMSO, 5 μM forskolin and 0.1 mM IBMX. After 60 minutes incubation at room temperature, the reaction is terminated and the cells lysed by adding the d2 detection reagent and the cryptate reagent in 10 μL lysis buffer each according to manufacturer's instructions. After 60 minutes incubation, changes in cAMP concentrations are measured according to manufacturer's instructions using an Envision plate reader with laser excitation. All incubations were performed in duplicate. Data was analyzed using GraphPad Prism software using the 4-parameter logistic equation to measure MDL29,951 pEC50s in absence and presence of GPR17 antagonist/inverse agonist test compounds. Dose ratio (DR) were plotted against antagonist concentrations and Schild analysis provided estimated affinity pA2 of GPR17 antagonist/inverse agonist test compounds.
Target sequence in this assay (Q13304 whole entry): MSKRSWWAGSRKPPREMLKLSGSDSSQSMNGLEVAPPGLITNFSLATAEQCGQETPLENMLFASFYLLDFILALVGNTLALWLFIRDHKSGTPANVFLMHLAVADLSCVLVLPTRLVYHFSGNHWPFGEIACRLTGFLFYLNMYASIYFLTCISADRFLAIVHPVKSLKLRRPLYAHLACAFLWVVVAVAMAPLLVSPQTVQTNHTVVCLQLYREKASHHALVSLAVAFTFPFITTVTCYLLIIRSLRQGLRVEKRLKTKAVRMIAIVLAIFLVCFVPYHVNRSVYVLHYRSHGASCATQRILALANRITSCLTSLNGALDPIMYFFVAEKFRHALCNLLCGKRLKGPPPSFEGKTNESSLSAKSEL

| SMILES | Kb [nM] |
| --- | --- |
| O=S(=O)(Nc1ncc(OCCF)cc1F)c1c[nH]c2c(Cl)c(Cl)ccc12 [Example I-5, 6,7-dichloro-N-[3-fluoro-5-(2-fluoroethoxy)pyridin-2-yl]-1H-indole-3-sulfonamide] | 3.16 to 31.6 |
| O=S(=O)(Nc1ncc(OCCF)cc1F)c1c[nH]c2c(F)c(C(F)F)ccc12 [Example I-8, 6-(difluoromethyl)-7-fluoro-N-[3-fluoro-5-(2-fluoroethoxy)pyridin-2-yl]-1H-indole-3-sulfonamide] | > 31.6 |
| O=S(=O)(Nc1nc(F)c(OCCF)cc1F)c1c[nH]c2c(F)c(Cl)ccc12 [Example I-10, 6-chloro-N-[3,6-difluoro-5-(2-fluoroethoxy)pyridin-2-yl]-7-fluoro-1H-indole-3-sulfonamide] | ≤ 3.16 |
| COc1nc(NS(=O)(=O)c2c[nH]c3c(Cl)c(Cl)ccc23)c(F)cc1OCC(F)F [Example I-13, 6,7-dichloro-N-[5-(2,2-difluoroethoxy)-3-fluoro-6-methoxypyridin-2-yl]-1H-indole-3-sulfonamide] | ≤ 3.16 |
| O=S(=O)(Nc1ncc(OCC(F)F)cc1F)c1c[nH]c2c(C(F)F)c(Cl)ccc12 [Example I-14, 6-chloro-N-[5-(2,2-difluoroethoxy)-3-fluoropyridin-2-yl]-7-(difluoromethyl)-1H-indole-3-sulfonamide] | 3.16 to 31.6 |
| COc1nc(NS(=O)(=O)c2c[nH]c3c(C(F)F)c(Cl)ccc23)c(F)cc1OCC(F)F [Example I-15, 6-chloro-N-[5-(2,2-difluoroethoxy)-3-fluoro-6-methoxypyridin-2-yl]-7-(difluoromethyl)-1H-indole-3-sulfonamide] | ≤ 3.16 |
| COc1nc(NS(=O)(=O)c2c[nH]c3c(F)c(Cl)ccc23)c(F)cc1OCCOC(F)F [Example I-23, 6-chloro-N-[5-[2-(difluoromethoxy)ethoxy]-3-fluoro-6-methoxypyridin-2-yl]-7-fluoro-1H-indole-3-sulfonamide] | ≤ 3.16 |

Second part, the compound after the results:

| Kb [nM] | SMILES |
| --- | --- |
| ≤ 3.16 | O=S(=O)(Nc1nc(F)c(OCCF)cc1F)c1c[nH]c2c(Cl)c(Cl)ccc12 [Example I-1, 6,7-dichloro-N-[3,6-difluoro-5-(2-fluoroethoxy)pyridin-2-yl]-1H-indole-3-sulfonamide] |
| ≤ 3.16 | O=S(=O)(Nc1nc(F)c(OCCF)cc1F)c1c[nH]c2c(OC3CC3)c(Cl)ccc12 [Example I-2, 6-chloro-7-cyclopropyloxy-N-[3,6-difluoro-5-(2-fluoroethoxy)pyridin-2-yl]-1H-indole-3-sulfonamide] |
| ≤ 3.16 | O=S(=O)(Nc1nc(F)c(OCCF)cc1F)c1c[nH]c2c(C(F)F)c(Cl)ccc12 [Example I-3, 6-chloro-N-[3,6-difluoro-5-(2-fluoroethoxy)pyridin-2-yl]-7-(difluoromethyl)-1H-indole-3-sulfonamide] |
| 3.16 to 31.6 | O=S(=O)(Nc1ncc(OCC(F)F)cc1F)c1c[nH]c2c(Cl)c(Cl)ccc12 [Example I-6, 6,7-dichloro-N-[5-(2,2-difluoroethoxy)-3-fluoropyridin-2-yl]-1H-indole-3-sulfonamide] |
| 3.16 to 31.6 | O=S(=O)(Nc1ncc(OCCF)cc1F)c1c[nH]c2c(C(F)F)c(Cl)ccc12 [Example I-7, 6-chloro-7-(difluoromethyl)-N-[3-fluoro-5-(2-fluoroethoxy)pyridin-2-yl]-1H-indole-3-sulfonamide] |
| ≤ 3.16 | O=S(=O)(Nc1nc(F)c(OCC(F)F)cc1F)c1c[nH]c2c(F)c(Cl)ccc12 [Example I-11, 6-chloro-N-[5-(2,2-difluoroethoxy)-3,6-difluoropyridin-2-yl]-7-fluoro-1H-indole-3-sulfonamide] |
| 3.16 to 31.6 | O=S(=O)(Nc1nc(F)c(OCCF)cc1F)c1c[nH]c2c(C3CC3)c(Cl)ccc12 [Example I-12, 6-chloro-7-cyclopropyl-N-[3,6-difluoro-5-(2-fluoroethoxy)pyridin-2-yl]-1H-indole-3-sulfonamide] |
| ≤ 3.16 | COc1cc(OC(F)F)cnc1NS(=O)(=O)c1c[nH]c2c(Cl)c(Cl)ccc12 [Example I-16, 6,7-dichloro-N-[5-(difluoromethoxy)-3-methoxypyridin-2-yl]-1H-indole-3-sulfonamide] |
| 3.16 to 31.6 | COc1cc(OC(F)F)cnc1NS(=O)(=O)c1c[nH]c2c(C(F)F)c(Cl)ccc12 [Example I-17, 6-chloro-N-[5-(difluoromethoxy)-3-methoxypyridin-2-yl]-7-(difluoromethyl)-1H-indole-3-sulfonamide] |
| 3.16 to 31.6 | O=S(=O)(Nc1nc(F)c(OCCF)cc1F)c1c[nH]c2c(OC(F)(F)F)c(Cl)ccc12 [Example I-18, 6-chloro-N-[3,6-difluoro-5-(2-fluoroethoxy)pyridin-2-yI]-7-(trifluoromethoxy)-1H-indole-3-sulfonamide] |
| > 31.6 | O=S(=O)(Nc1ncc(OCC(F)F)cc1F)c1c[nH]c2c(F)c(C(F)F)ccc12 [Example I-19, N-[5-(2,2-difluoroethoxy)-3-fluoropyridin-2-yl]-6-(difluoromethyl)-7-fluoro-1H-indole-3-sulfonamide] |
| ≤ 3.16 | COc1nc(NS(=O)(=O)c2c[nH]c3c(Cl)c(C(F)F)ccc23)c(F)cc1OCC(F)F [Example I-20, 7-chloro-N-[5-(2,2-difluoroethoxy)-3-fluoro-6-methoxypyridin-2-yl]-6-(difluoromethyl)-1H-indole-3-sulfonamide] |
| 3.16 to 31.6 | COc1cc(OCC(F)F)cnc1NS(=O)(=O)c1c[nH]c2c(Cl)c(Cl)ccc12 [Example I-21, 6,7-dichloro-N-[5-(2,2-difluoroethoxy)-3-methoxypyridin-2-yl]-1H-indole-3-sulfonamide] |
| ≤ 3.16 | COc1nc(NS(=O)(=O)c2c[nH]c3c(F)c(Cl)ccc23)c(F)cc1OCC(F)F [Example I-22, 6-chloro-N-[5-(2,2-difluoroethoxy)-3-fluoro-6-methoxypyridin-2-yl]-7-fluoro-1H-indole-3-sulfonamide] |

System: CYP1A2
Experiment: CYP 450-1A2 induction assay in cryopreserved human hepatocytes
Type: in vitro ADME
Conditions: 10 μM test compound, 72 h, compared to vehicle control
Procedure: Cryopreserved human hepatocytes from a single donor are seeded on a 96 well collagen coated plate so that the final seeding density is 0.1×10^6 cells/well (final volume per well 0.1 mL). The cells are then incubated in seeding medium at 37° C., 95% humidity, 5% CO2 to allow the cells to attach. After 4 h, the seeding medium is replaced with 0.1 mL of pre warmed serum free Williams E medium containing 100 IU/mL penicillin, 100 μg/mL streptomycin, 10 μg/mL insulin, 2 mM L glutamine and 0.1 μM hydrocortisone.
The next day, cells are dosed with test compound in assay medium (final test compound concentration 10 μM; final DMSO concentration 0.1%). Positive control inducers, omeprazole (50 μM) for CYP1A2, phenobarbital (500 μM) for CYP2B6 and rifampicin (10 μM) for CYP3A4, are incubated alongside the test compound. Negative control wells are included where the test compound is replaced by vehicle solvent (0.1% DMSO in assay medium). Each test compound is dosed in triplicate. The cells are exposed to the solutions for 72 h with fresh solution added every 24 h.
For catalytic activity determination, a solution of the probe substrates, phenacetin (final concentration 25 μM), bupropion (final concentration 100 μM) and midazolam (final concentration 2.5 μM) is prepared in pre warmed assay medium. At the end of the 72 h exposure period, the media is replaced with the cocktail of probe substrates. The hepatocytes are incubated for 30 min. An aliquot is removed at the end of the incubation period and placed into methanol containing internal standard in a 1:2 ratio. The samples are centrifuged at 2500 rpm at 4° C. for 20 min. An aliquot of supernatant is diluted with deionised water and levels of acetaminophen, hydroxybupropion and 1 hydroxymidazolam are quantified using Cyprotex generic LC MS/MS methods.
The hepatocytes are solubilised in 0.1M sodium hydroxide at room temperature and protein content in each well determined using Pierce™ BCA Protein Assay Kit (Thermo Scientific) using bovine serum albumin as a standard.
For catalytic activity determination, the concentration of metabolite formed at each test compound replicate is converted to CYP activity and normalised to protein. The fold change is determined by comparing to the vehicle control wells. The fold change observed at each test compound concentration is expressed as a percentage of the positive control compounds for each P450 isoform.

| induction of CYP1A2 | SMILES |
| --- | --- |
| 16 fold | O=S(=O)(Nc1nc(F)c(OCCF)cc1F)c1c[nH]c2cc(Cl)ccc12 [Comparative Example 1, 6-chloro-N-[3,6-difluoro-5-(2-fluoroethoxy)pyridin-2-yl]-1H-indole-3-sulfonamide, reference compound] |
| no CYP1A2 induction | O=S(=O)(Nc1nc(F)c(OCCF)cc1F)c1c[nH]c2c(Cl)c(Cl)ccc12 [Example I-1, 6,7-dichloro-N-[3,6-difluoro-5-(2-fluoroethoxy)pyridin-2-yl]-1H-indole-3-sulfonamide] |
| no CYP1A2 induction | O=S(=O)(Nc1nc(F)c(OCCF)cc1F)c1c[nH]c2c(OC3CC3)c(Cl)ccc12 [Example I-2, 6-chloro-7-cyclopropyloxy-N-[3,6-difluoro-5-(2-fluoroethoxy)pyridin-2-yl]-1H-indole-3-sulfonamide] |
| no CYP1A2 induction | O=S(=O)(Nc1nc(F)c(OCCF)cc1F)c1c[nH]c2c(C(F)F)c(Cl)ccc12 [Example I-3, 6-chloro-N-[3,6-difluoro-5-(2-fluoroethoxy)pyridin-2-yl]-7-(difluoromethyl)-1H-indole-3-sulfonamide] |
| no CYP1A2 induction | O=S(=O)(Nc1nc(F)c(OCCF)cc1F)c1c[nH]c2c(C3CC3)c(Cl)ccc12 [Example I-12, 6-chloro-7-cyclopropyl-N-[3,6-difluoro-5-(2-fluoroethoxy)pyridin-2-yl]-1H-indole-3-sulfonamide] |

Molecular target: T1, GPR17
Experiment: not given
Conditions: activating ligands for GPR17; cited from earlier work
Target sequence in this assay (Q13304 whole entry, species assumed): as the sequence (Q13304 whole entry) above

| SMILES | amounts needed in the assays |
| --- | --- |
| NCC(=O)CCC(=O)O [Example 5-ALA, 5 amino levulinic acid] | three digit micromolar range |
| NCc1[nH]cc(CCC(=O)O)c1CC(=O)O [PBG, porphobilinogen] | mM range |
